# Measurements as given in patent US20230293517A1, “ANTAGONIST COMPOUNDS” (AdoRx Therapeutics Limited, priority 2020, published 2023).
# Where two headings read alike, the source gives them in different places.
# Assays:
# [1] = target: human Adenosine A1 receptor (Homo sapiens (Human), UniProt P30542); assay: Adenosine receptor TR-FRET binding assay (A1); conditions: inhibition of binding of 100 nM CA200645, CHO cell membranes
# In short: (§1)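 Terbium-labelled human receptors in CHO cell membranes were incubated 2 h at room temperature with test compounds and fluorescent XAC tracer CA200645 (30 nM for A2b; 100 nM for A1, A2a, A3). TR-FRET 665/620 nm ratio gave specific binding; Ki derived from IC50 by Cheng–Prusoff.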
# [2] = target: human Adenosine A2a receptor (Homo sapiens (Human), UniProt P29274); assay: Adenosine receptor TR-FRET binding assay (A2a); conditions: inhibition of binding of 100 nM CA200645, CHO cell membranes
# Sequence of human Adenosine A2a receptor (P29274 whole entry): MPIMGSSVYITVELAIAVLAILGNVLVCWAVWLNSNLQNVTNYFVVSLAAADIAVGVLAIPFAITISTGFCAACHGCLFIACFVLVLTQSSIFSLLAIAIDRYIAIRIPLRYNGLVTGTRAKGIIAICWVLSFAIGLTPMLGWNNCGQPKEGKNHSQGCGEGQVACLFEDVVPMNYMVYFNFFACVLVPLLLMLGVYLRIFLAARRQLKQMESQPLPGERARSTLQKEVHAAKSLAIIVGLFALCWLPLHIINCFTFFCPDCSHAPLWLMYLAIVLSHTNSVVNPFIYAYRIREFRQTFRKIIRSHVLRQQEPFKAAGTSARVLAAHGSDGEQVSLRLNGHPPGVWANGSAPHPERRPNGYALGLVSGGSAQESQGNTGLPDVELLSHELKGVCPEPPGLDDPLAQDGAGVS
# In short: as §1
# [3] = target: human Adenosine A2b receptor (Homo sapiens (Human), UniProt P29275); assay: Adenosine receptor TR-FRET binding assay (A2b)
# Sequence of human Adenosine A2b receptor (P29275 whole entry): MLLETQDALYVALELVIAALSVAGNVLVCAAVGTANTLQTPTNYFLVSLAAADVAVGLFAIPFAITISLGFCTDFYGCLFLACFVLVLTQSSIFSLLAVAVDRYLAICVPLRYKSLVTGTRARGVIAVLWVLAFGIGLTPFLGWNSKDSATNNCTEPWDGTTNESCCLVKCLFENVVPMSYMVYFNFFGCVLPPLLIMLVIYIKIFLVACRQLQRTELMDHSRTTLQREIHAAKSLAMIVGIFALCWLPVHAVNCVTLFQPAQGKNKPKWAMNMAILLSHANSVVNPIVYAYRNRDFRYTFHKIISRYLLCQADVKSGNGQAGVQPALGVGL
# In short: as §1
# [4] = target: human Adenosine A3 receptor (Homo sapiens (Human), UniProt P0DMS8); assay: Adenosine receptor TR-FRET binding assay (A3); conditions: inhibition of binding of 100 nM CA200645, CHO cell membranes
# Sequence of human Adenosine A3 receptor (P0DMS8 whole entry): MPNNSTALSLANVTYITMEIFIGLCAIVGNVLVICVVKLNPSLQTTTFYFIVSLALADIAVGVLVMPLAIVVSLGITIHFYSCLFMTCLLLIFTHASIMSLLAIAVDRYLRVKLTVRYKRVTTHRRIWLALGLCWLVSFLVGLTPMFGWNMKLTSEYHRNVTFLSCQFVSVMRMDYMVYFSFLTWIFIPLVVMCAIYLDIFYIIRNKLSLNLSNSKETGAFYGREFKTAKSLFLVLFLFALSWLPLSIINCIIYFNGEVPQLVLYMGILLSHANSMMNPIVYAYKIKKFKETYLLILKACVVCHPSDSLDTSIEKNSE
# In short: as §1
# human PBMCs = assay: CD3/CD28 stimulated IL-2 release NECA reversal assay in human PBMCs; assay type: cell-based; conditions: PBMC, 1 uM NECA, 24 hours, IL-2 in culture supernatant
# Experimental: Biological Example—CD3/CD28 Stimulated IL-2 Release NECA Reversal Assay in Human PBMCs
# Blood is drawn from healthy volunteers using sodium citrate as the anticoagulant (0.3% final concentration). After centrifugation of the blood over Histopaque-1077, PBMCs are collected from the Histopaque/plasma interface and washed twice in PBS (300 g for 10 mins at room temp). Cells are plated at 50,000 cells/well in 150 μl RPMI/10% FCS in 96-well cell culture plates that have been precoated with 1 ug/ml CD3 antibody. 50 μl diluted compound mix is added to the cells, to obtain final concentrations of 1 ug/ml CD28 antibody, 1 uM NECA and 0.003-10 μM adenosine receptor antagonist. Assay plates are incubated for 24 hours at 37° C. in a humidified incubator. Culture supernatant is tested for IL-2 levels using the human IL-2 Tissue Culture Kit (Meso Scale Discovery). Data for dose-response curves is calculated as % inhibition with 100% inhibition defined from no agonist control wells (+CD3/28-NECA)
# [5] = test system: CD8+T cells in human whole blood; assay: Measurement of pCREB in CD8+T cells in human whole blood; assay type: cell-based; conditions: 3 μM NECA, rolipram
# Experimental: Biological Example—Measurement of pCREB in CD8+T Cells in Human Whole Blood
# Heparinised human whole blood was pre-incubated at 37° C. with serial dilutions of A2a antagonists for 20 min. and the phosphodiesterase inhibitor rolipram to amplify the pCREB response. The adenosine receptor agonist NECA is then added at a final concentration of 3 μM and following a 60 min incubation the blood is fixed and red blood cells lysed. White blood cells are isolated, permeabilized and stained with directly conjugated fluorescent antibodies to phospho-CREB (Alexa Fluor 488) and CD8 (Alexa Fluor 647) and the level of phospho-CREB in CD8+T cells is measured by FACS using a BD Accuri C6 Flow Cytometer.
# [6] = TR-FRET, inhibition of binding of 30 nM CA200645, CHO cell membranes
# Sequence of human Adenosine A1 receptor (P30542 whole entry): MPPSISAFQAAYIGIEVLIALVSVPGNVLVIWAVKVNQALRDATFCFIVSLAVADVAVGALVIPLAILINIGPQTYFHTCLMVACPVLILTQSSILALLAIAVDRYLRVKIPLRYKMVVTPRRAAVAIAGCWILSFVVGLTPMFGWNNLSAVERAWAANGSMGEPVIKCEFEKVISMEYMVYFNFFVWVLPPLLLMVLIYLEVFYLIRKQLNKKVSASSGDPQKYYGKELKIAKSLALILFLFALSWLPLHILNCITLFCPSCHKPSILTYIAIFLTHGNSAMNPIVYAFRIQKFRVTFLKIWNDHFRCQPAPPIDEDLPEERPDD
Ki [1],Ki [2],"Ki [3, 6]",Ki [4],IC50 [5],Ki [3],Structure (SMILES),IC50 (human PBMCs)
161 nM,1.5 nM,2.6 nM,967 nM,130 nM,–,"Cc1cc(-c2sc(NC(=O)N3CCC4(CC3)NC(=O)NC4=O)nc2-c2cccc(C#N)c2)cc(C)n1 [Example 4.20, N-[4-(3-Cyanophenyl)-5-(2,6-dimethyl-4-pyridyl)thiazol-2-yl]-2,4-dioxo-1,3,8-triazaspiro[4.5]decane-8-carboxamide]",1.3 nM
14 nM,0.12 nM,1.8 nM,120 nM,50 nM,–,"Cc1cc(-c2sc(NC(=O)N3CC(CO)C3)nc2-c2cccc(C#N)c2)cc(C)n1 [Example 4.25, N-[4-(3-Cyanophenyl)-5-(2,6-dimethyl-4-pyridyl)thiazol-2-yl]-3-(hydroxymethyl)azetidine-1-carboxamide]",1.1 nM
4 nM,0.05 nM,0.4 nM,130 nM,20 nM,–,"Cc1cc(-c2sc(NC(=O)N3CC(C#N)C3)nc2-c2cccc(C#N)c2)cc(C)n1 [Example 4.26, 3-Cyano-N-[4-(3-cyanophenyl)-5-(2,6-dimethyl-4-pyridyl)thiazol-2-yl]azetidine-1-carboxamide]",0.4 nM
24 nM,0.13 nM,1.3 nM,112 nM,50 nM,–,"Cc1cc(-c2sc(NC(=O)N3CCC(C(N)=O)CC3)nc2-c2cccc(C#N)c2)cc(C)n1 [Example 4.29, N1-[4-(3-Cyanophenyl)-5-(2,6-dimethyl-4-pyridyl)thiazol-2-yl]piperidine-1,4-dicarboxamide]",2.1 nM
7 nM,0.41 nM,0.6 nM,106 nM,60 nM,–,"Cc1cc(-c2sc(NC(=O)N3CC(O)C3)nc2-c2cccc(C#N)c2)cc(C)n1 [Example 4.30, N-[4-(3-Cyanophenyl)-5-(2,6-dimethyl-4-pyridyl)thiazol-2-yl]-3-hydroxy-azetidine-1-carboxamide]",1.3 nM
40 nM,0.84 nM,0.9 nM,70 nM,1180 nM,–,"Cc1cc(-c2sc(NC(=O)N3CCN[C@H](CO)C3)nc2-c2cccc(C#N)c2)cc(Cl)n1 [Example 5.2, (3S)-N-[5-(2-Chloro-6-methyl-4-pyridyl)-4-(3-cyanophenyl)thiazol-2-yl]-3-(hydroxymethyl)piperazine-1-carboxamide]",20.2 nM
111 nM,1.03 nM,–,33 nM,1950 nM,5.8 nM,"Cc1cc(-c2sc(NC(=O)N3CCN[C@@H](C)C3)nc2-c2cccc(C#N)c2)cc(Cl)n1 [Example 5.4, (3S)-N-[5-(2-Chloro-6-methyl-4-pyridyl)-4-(3-cyanophenyl)thiazol-2-yl]-3-methyl-piperazine-1-carboxamide]",71.8 nM
114 nM,0.94 nM,2.4 nM,70 nM,2690 nM,–,"Cc1cc(-c2sc(NC(=O)N3CCN[C@H](C)C3)nc2-c2cccc(C#N)c2)cc(Cl)n1 [Example 5.5, (3R)-N-[5-(2-Chloro-6-methyl-4-pyridyl)-4-(3-cyanophenyl)thiazol-2-yl]-3-methyl-piperazine-1-carboxamide]",30.6 nM
22 nM,2.13 nM,4.2 nM,31 nM,720 nM,–,"Cc1cc(-c2sc(NC(=O)N3C[C@@H]4C[C@H]3CN4)nc2-c2cccc(C#N)c2)cc(Cl)n1 [Example 5.6, (1S,4S)-N-[5-(2-Chloro-6-methyl-4-pyridyl)-4-(3-cyanophenyl)thiazol-2-yl]-2,5-diazabicyclo[2.2.1]heptane-2-carboxamide]",30.5 nM
